Literature values in patent publication US20110171138A1, “SUBSTANTIALLY PURE DEFERASIROX AND PROCESSES FOR THE PREPARATION THEREOF” (ACTAVIS GROUP PTC EHF, priority 2008, published 2011).

Settings: in water and in acid medium; the solubility increasing with pH

- solubility: practically insoluble
SMILES: O=C(O)c1ccc(-n2nc(-c3ccccc3O)nc2-c2ccccc2O)cc1 [Deferasirox, 4-[3,5-Bis(2-hydroxyphenyl)-1H-1,2,4-triazol-1-yl]benzoic acid]
